These results are taken from patent publication EP0614465B1, “HYBRID PROTEIN BETWEEN CS FROM […] HBsAG” (SMITHKLINE BEECHAM BIOLOGICALS S.A., priority 1991, dated 1993).

This experiment has as its system R32tet32 antigen. The experiment can be described thus: immunogenicity in mice: anti-R32tet32 (anti-repeat) antibody titer by ELISA. Format: in vivo, Balb/C mice. Particulars: effect of 3D-MPL (50 µg/dose) added to (RTS,S) on A1(OH)3. Background: An ELISA detects its analyte on a solid surface through an enzyme-linked reagent.

“3 Deacylated monophosphoryl lipid A [3D-MPL]”: the “primary antibody response in mice” value is on record as “enhanced”.
